Experimental findings from PubChem BioAssay AID1054 (Sanford-Burnham Center for Chemical Genomics, 2008) are described below.

“And” between values parts separate entries of the source, which are not always exact repeats. Equal entries are not always repeated. The source made the active and inactive calls. How the calls were made is not given here.

What is called IC50 is the concentration needed to halve the response being measured.

The target of the assay is Dual specificity protein phosphatase 6 (Rattus norvegicus) (UniProt Q64346). The assay can be described thus: DUSP6 phosphatase inhibition, redox-sensitive – biochemical, rat enzyme, secondary assay (AID 1054). The conditions noted are these: recombinant MKP-3 phosphatase activity, redox-state secondary assay.
Dual specificity protein phosphatase 6 (Rattus norvegicus), sequence (Q64346 whole entry, looked up): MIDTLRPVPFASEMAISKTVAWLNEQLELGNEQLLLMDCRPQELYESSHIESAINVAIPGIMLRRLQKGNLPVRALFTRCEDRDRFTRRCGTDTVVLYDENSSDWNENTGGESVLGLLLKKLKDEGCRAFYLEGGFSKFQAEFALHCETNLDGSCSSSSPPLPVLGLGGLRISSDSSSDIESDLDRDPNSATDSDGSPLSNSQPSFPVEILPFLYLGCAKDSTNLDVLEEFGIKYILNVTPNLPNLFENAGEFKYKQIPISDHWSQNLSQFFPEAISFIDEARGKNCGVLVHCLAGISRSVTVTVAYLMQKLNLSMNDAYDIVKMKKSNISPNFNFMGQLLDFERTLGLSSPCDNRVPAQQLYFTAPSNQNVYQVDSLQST

With `O=C(O)C1Nc2cc(C(F)(F)F)ccc2S(=O)(=O)N1` (stereo not drawn), the IC50 was > 100 µM (inactive).
With `CC(C)[C@@H](C(N)=O)n1c(=O)[nH]c(=O)n(-c2ccc(Cl)cc2)c1=O` the figure was > 100 µM (inactive); with `O=C(O)C1Nc2c(Cl)cc(Cl)cc2C2C=CCC12` (stereo not drawn), 53 µM; with `O=C(O)C1Nc2ccc([N+](=O)[O-])cc2C2C=CCC12` (stereo not drawn), 47.5 µM.
The value for `O=C(O)C1Nc2ccc(Br)cc2C2C=CCC12` (stereo not drawn) was 12.3 µM; that for `O=C(O)[C@@H](O)c1ccccc1` was > 100 µM (inactive); that for `CCn1c(=O)n(Cc2ccc(N(O)O)cc2)c(=O)n([C@@H](Cc2ccccc2)C(=O)O)c1=O` was > 100 µM (inactive).
The value for `CCCCCCCCCCCCCCCCCCC#CCCCCCCCCCCC(=O)O` was > 100 µM (inactive).
With `O=C(Oc1ccc2c(c1)C1C=CCC1C(C(=O)O)N2)c1ccc(Cl)cc1Cl` (stereo not drawn), the IC50 was 15.6 µM.
The value for `CCn1c(SCC(=O)O)nc2sc3c(c2c1=O)CCCC3` was > 100 µM (inactive); that for `Cc1ccc2c(nc3s/c(=C\c4ccc(-c5ccccc5C(=O)O)o4)c(=O)n32)c1C` was 21.6 µM; that for `Cc1ccc2c(c1)C1C=CCC1C(C(=O)O)N2` (stereo not drawn) was 7.92 µM.
Regarding `COc1cc(C(=S)NCc2ccccc2)ccc1O`, the IC50 was 4.46 µM.
Regarding `CC(C)COC(=O)c1ccc2c(c1)C1C=CCC1C(C(=O)O)N2` (stereo not drawn), the IC50 was 55.8 µM.
The value for `CCn1c(=O)n(CC)c(=O)n([C@@H](Cc2ccccc2)C(=O)O)c1=O` was > 100 µM (inactive); that for `CCOC(=O)C1Nc2c(O)ccc(C)c2C2C=CCC12` (stereo not drawn) was > 100 µM (inactive); that for `Cc1cc2ccccn2c1C(=O)C(=O)O` was > 100 µM (inactive).
As for `O=S(=O)(O)c1ccc2cc(N=Nc3cc(S(=O)(=O)O)c4cccnc4c3O)ccc2c1`, the IC50 is 4.19 µM.
As to `O=C(O)C1Nc2c(cccc2S(=O)(=O)c2ccccc2)C2C=CCC12` (stereo not drawn), the IC50 is 58.7 µM.
The value for `CCOC(=O)C1Nc2c(O)cccc2C2C=CCC12` (stereo not drawn) was > 100 µM (inactive); that for `NC(=O)[C@H](Cc1ccccc1)n1c(=O)n(Cc2ccc(Br)cc2)c(=O)n(-c2ccccc2)c1=O` was > 100 µM (inactive); that for `COc1cccc2c1NC(C(=O)O)C1CC=CC21` (stereo not drawn) was 23.1 µM and 13.1 µM.
With `O=C(O)C1Nc2c(I)cccc2C2C=CCC12` (stereo not drawn) the figure was > 100 µM (inactive); with `CCOC(=O)C1=C(C)N=c2s/c(=C/c3cc(Cl)c(OCC(=O)O)c(OC)c3)c(=O)n2C1c1ccccc1Cl` (stereo not drawn), 9.75 µM.
With `CCCCCCCCCCCCCCCCCCC#CCCCCCCCCCCCC(=O)O` the figure was > 100 µM (inactive); with `O=c1/c(=C/c2ccco2)sc2nc3cc(Br)cnc3n12`, 4.56 µM.
As to `Cc1cc(C)c2c(c1)C1C=CCC1C(C(=O)O)N2` (stereo not drawn), the IC50 is > 100 µM (inactive).
As to `O=c1/c(=C/c2cccc(Br)c2)sc2nc3cc(Br)cnc3n12`, the IC50 is > 100 µM (inactive).
For `CCCn1c(=O)nc(NCCc2ccccc2)[nH]c1=O`, the IC50 is > 100 µM (inactive).
As to `O=C(O)[C@H](O)c1ccccc1`, the IC50 was > 100 µM (inactive).
The value for `O=C(O)C1Nc2ccccc2C2C=CCC12` (stereo not drawn) was 25.2 µM; that for `CCN(CC)C(=S)c1ccc(O)c(OC)c1` was 86.6 µM; that for `Cc1cc(I)cc2c1NC(C(=O)O)C1CC=CC21` (stereo not drawn) was > 100 µM (inactive).
